These results are taken from US20230339970A1, “CASEIN KINASE 1 DELTA MODULATORS” (priority 2020, published 2023).

Structures are written as SMILES.

Broadly, the IC50 is the concentration that inhibits the measured activity by half.

For one test, the target named is T1, human CSNK1D (Homo sapiens, UniProt P48730).
T1 construct: expressed in transfected cells
As to the kind of experiment: Whole Cell nBRET CSNK1D Binding Assay. The conditions noted are these: living CHO cells stably expressing human CSNK1D tagged with nanoluciferase; NanoBret tracer 130 nM; 2 hours at 37 C.

Test [1] has as its target T2, human recombinant GST cleaved CSNK1D (Homo sapiens, UniProt P48730).
T2 construct: GST (cleaved yes); purchased University of Dundee clone DU 19064
As to the kind of experiment: Purified Enzyme Assay (ADP-Glo CSNK1D Kinase Assay). It is filed as biochemical. The following applies: 2 nM CSNK1D; peptide substrate 150 μM; ATP 20 μM; 45 minutes at room temperature. In outline: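 GST-cleaved human recombinant CSNK1D phosphorylates peptide PLSRTL-pS-VASLPGL with ATP; compounds added in dose-response, 45 min at room temperature. ADP formed measured by ADP-Glo luminescence and converted to percent activity.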
(ADP-Glo turns the ADP formed in a reaction into a luminescent signal.)

T2 sequence (P48730 whole entry): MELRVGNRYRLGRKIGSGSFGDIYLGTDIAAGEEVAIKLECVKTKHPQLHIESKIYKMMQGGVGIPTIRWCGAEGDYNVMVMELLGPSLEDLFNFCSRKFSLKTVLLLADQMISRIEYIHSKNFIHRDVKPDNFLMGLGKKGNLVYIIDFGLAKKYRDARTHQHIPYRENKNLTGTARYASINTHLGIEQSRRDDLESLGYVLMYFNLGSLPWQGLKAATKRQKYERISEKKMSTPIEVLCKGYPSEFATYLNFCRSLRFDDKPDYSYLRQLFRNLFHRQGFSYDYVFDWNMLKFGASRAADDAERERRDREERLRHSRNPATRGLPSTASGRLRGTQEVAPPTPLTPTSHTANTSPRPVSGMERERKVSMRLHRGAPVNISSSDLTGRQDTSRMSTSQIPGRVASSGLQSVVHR
T1 sequence (P48730 whole entry): as above

Turning to `COC[C@@]1(C)CCc2c(-c3cc(C)nc4[nH]ncc34)c(-c3ccc(F)cn3)nn2C1` (single isomer, unassigned) [Example 55, (*S)-4-(2-(5-Fluoropyridin-2-yl)-6-(methoxymethyl)-6-methyl-4,5,6,7-tetrahydropyrazolo[1,5-a]pyridin-3-yl)-6-methyl-1H-pyrazolo[3,4-b]pyridine], the IC50 on human CSNK1D was 125 nM; in test [1] it was 3 nM.

With `Fc1ccc(-c2nn3c(c2-c2ccnc4[nH]ncc24)CC2(C3)CC2(F)F)nc1` (single isomer, unassigned) [Example 254, (*S)-1′1l′-Difluoro-2-(5-fluoro-2-pyridyl)-3-(1H-pyrazolo[3,4-b]pyridin-4-yl)spiro[4,6-dihydropyrrolo[1,2-b]pyrazole-5,2′-cyclopropane]], the concentration for half-maximal inhibition (IC50) at human CSNK1D was found to be 85 nM; in test [1], 4 nM.

For `CC1COc2c(-c3ccn4nccc4c3)c(-c3ccc(F)cn3)nn2C1` (stereo not drawn) [Example 443, 2-(5-Fluoropyridin-2-yl)-6-methyl-3-(pyrazolo[1,5-a]pyridin-5-yl)-6,7-dihydro-5H-pyrazolo[5,1-b][1,3]oxazine], the IC50 amounted to 581 nM at human CSNK1D and 30 nM in test [1].

For `Cc1cc(-c2c(-c3ccc(F)cn3)nn3c2O[C@H](C)CC3)c2cn[nH]c2n1` (single isomer, unassigned) [Example 201, (*R)-2-(5-Fluoro-2-pyridyl)-5-methyl-3-(6-methyl-1H-pyrazolo[3,4-b]pyridin-4-yl)-6,7-dihydro-5H-pyrazolo[5,1-b][1,3]oxazine], the IC50 at human CSNK1D stood at 246 nM; in test [1] it was 17 nM.

Consider `Cc1cc(-c2c(-c3ccc(F)cc3)nn3c2COC[C@@H]3C)c2cn[nH]c2n1` (single isomer, unassigned) [Example 93, (*S)-2-(4-Fluorophenyl)-7-methyl-3-(6-methyl-1H-pyrazolo[3,4-b]pyridin-4-yl)-6,7-dihydro-4H-pyrazolo[5,1-c][1,4]oxazine], for which the figures for the IC50 (on human CSNK1D; in test [1]) were 297 nM and 10 nM, respectively.

For the molecule `Cc1nc2[nH]ncc2c(-c2c(-c3ccc(F)cn3)nn3c2CC2(C3)CC2(F)F)c1F` (single isomer, unassigned) [Example 263, (*R)-1′.1′-Difluoro-3-(5-fluoro-6-methyl-1H-pyrazolo[3,4-b]pyridin-4-yl)-2-(5-fluoro-2-pyridyl)spiro[4,6-dihydropyrrolo[1,2-b]pyrazole-5,2′-cyclopropane]], the IC50 on human CSNK1D worked out at 1460 nM; in test [1], 54 nM.

As for `Cc1cn2nccc2cc1-c1c(-c2ccc(F)cn2)nn2c1OCC(C)(C)C2` [Example 451, 2-(5-Fluoro-2-pyridyl)-6,6-dimethyl-3-(6-methylpyrazolo[1,5-a]pyridin-5-yl)-5,7-dihydropyrazolo[5,1-b][1,3]oxazine], the values for the half-inhibitory concentration (IC50) (on human CSNK1D; in test [1]) were 5760 nM and 132 nM, respectively.

For `CC1(C)Cn2nc(-c3ccncc3Cl)c(-c3ccnc4[nH]ncc34)c2CO1` [Example 162, 2-(3-Chloropyridin-4-yl)-6,6-dimethyl-3-(1H-pyrazolo[3,4-b]pyridin-4-yl)-6,7-dihydro-4H-pyrazolo[5,1-c][1,4]oxazine], the IC50 at human CSNK1D was over 10000 nM; in test [1], 143 nM.

Turning to `Fc1ccc(-c2nn3c(c2-c2ccnc4[nH]ncc24)[C@@H](Cl)C[C@]2(C3)CC2(F)F)nc1` (single isomer, unassigned) [Example 337, (1*S,4′*S)-4′-Chloro-2,2-difluoro-2′-(5-fluoropyridin-2-yl)-3′-(1H-pyrazolo[3,4-b]pyridin-4-yl)-4′,5′-dihydro-7′H-spiro[cyclopropane-1,6′-pyrazolo[1,5-a]pyridine]], the concentration for half-maximal inhibition (IC50) on human CSNK1D was determined as 80 nM; in test [1], 3 nM.

Regarding `Cc1cc(-c2c(-c3ccc(F)cn3)nn3c2CC(C)(C)C3)c2cn[nH]c2n1` [Example 238, 4-[2-(5-Fluoro-2-pyridyl)-5,5-dimethyl-4,6-dihydropyrrolo[1,2-b]pyrazol-3-yl]-6-methyl-1H-pyrazolo[3,4-b]pyridine], the IC50 at human CSNK1D was found to be 23 nM; in test [1], 2 nM.

In the case of `Cc1nc2[nH]ncc2c(-c2c(-c3ccc(F)cn3)nn3c2CCC3)c1F` [Example 9, 5-Fluoro-4-(2-(5-fluoropyridin-2-yl)-5,6-dihydro-4H-pyrrolo[1,2-b]pyrazol-3-yl)-6-methyl-1H-pyrazolo[3,4-b]pyridine], the IC50 at human CSNK1D amounted to 60 nM; in test [1], 12 nM.

With `COc1cnccc1-c1c(-c2ccc(F)cn2)nn2c1COC(C)(C)C2` [Example 130, 2-(5-Fluoropyridin-2-yl)-3-(3-methoxypyridin-4-yl)-6,6-dimethyl-6,7-dihydro-4H-pyrazolo[5,1-c][1,4]oxazine], the IC50 at human CSNK1D is 624 nM; in test [1] it was 31 nM.

Take `Fc1ccc(-c2nn3c(c2-c2ccnc4[nH]ncc24)CC[C@@H]2C[C@@H]23)cc1` (stereo in doubt) [Example 340, (5a*R,6a*S)-2-(4-Fluorophenyl)-3-(1H-pyrazolo[3,4-b]pyridin-4-yl)-5,5a,6,6a-tetrahydro-4H-cyclopropa[e]pyrazolo[1,5-a]pyridine]: the IC50 on human CSNK1D is 39 nM; in test [1], 5 nM.

`[2H]C([2H])([2H])[C@]1(C(F)(F)F)Cn2nc(-c3ccc(F)cn3)c(-c3ccnc4[nH]nc(C)c34)c2CO1` (single isomer, unassigned) [Example 425, (*R)-2-(5-Fluoropyridin-2-yl)-6-(methyl-d3)-3-(3-methyl-1H-pyrazolo[3,4-b]pyridin-4-yl)-6-(trifluoromethyl)-6,7-dihydro-4H-pyrazolo[5,1-c][1,4]oxazine]: the IC50 on human CSNK1D is 2260 nM; in test [1], 235 nM.

For `FCC1Cn2nc(-c3ccc(F)cc3)c(-c3ccnc4[nH]ncc34)c2CO1` (single isomer, unassigned) [Example 104, (*S)-6-(Fluoromethyl)-2-(4-fluorophenyl)-3-(1H-pyrazolo[3,4-b]pyridin-4-yl)-6,7-dihydro-4H-pyrazolo[5,1-c][1,4]oxazine], the figures for the 50% inhibitory concentration (IC50) (on human CSNK1D; in test [1]) were 49 nM and 4 nM, respectively.

For the molecule `COCC1(F)CCc2c(-c3cc(C)nc4[nH]ccc34)c(-c3ccc(F)cn3)nn2C1` (single isomer, unassigned) [Example 298, (*S)-4-[6-Fluoro-2-(5-fluoro-2-pyridyl)-6-(methoxymethyl)-5,7-dihydro-4H-pyrazolo[1,5-a]pyridin-3-yl]-6-methyl-1H-pyrrolo[2,3-b]pyridine], the IC50 came out at 12 nM on human CSNK1D and 2 nM in test [1].

Consider `Cc1nc2[nH]nc(C)c2c(-c2c(-c3ccc(F)cn3)nn3c2CC2(C3)CC2(F)F)c1F` (single isomer, unassigned) [Example 266, (*S)-1′1l′-Difluoro-3-(5-fluoro-3,6-dimethyl-1H-pyrazolo[3,4-b]pyridin-4-yl)-2-(5-fluoro-2-pyridyl)spiro[4,6-dihydropyrrolo[1,2-b]pyrazole-5,2′-cyclopropane]], for which the IC50 amounted to 337 nM at human CSNK1D and 52 nM in test [1].

On to `Fc1ccc(-c2nn3c(c2-c2c(F)cnc4[nH]ncc24)OCC2(CC2)C3)nc1` [Example 459, 3′-(5-Fluoro-1H-pyrazolo[3,4-b]pyridin-4-yl)-2′-(5-fluoropyridin-2-yl)-5′H,7′H-spiro[cyclopropane-1,6′-pyrazolo[5,1-b][1,3]oxazine]], for which the IC50 was found to be 80 nM at human CSNK1D and 4 nM in test [1].

As for `Fc1ccc(-c2nn3c(c2-c2ccnc4[nH]ncc24)CCC(F)(COC(F)F)C3)nc1` (single isomer, unassigned) [Example 315, (*R)-4-(6-((Difluoromethoxy)methyl)-6-fluoro-2-(5-fluoropyridin-2-yl)-4,5,6,7-tetrahydropyrazolo[1,5-a]pyridin-3-yl)-1H-pyrazolo[3,4-b]pyridine], the IC50 at human CSNK1D was determined as 1880 nM; in test [1], 73 nM.

With `Cc1cc(-c2c(-c3ccc(F)cn3)nn3c2C[C@@]2(C3)CC2(F)F)c2c(Cl)n[nH]c2n1` (single isomer, unassigned) [Example 262, (*S)-3′-(3-Chloro-6-methyl-1H-pyrazolo[3,4-b]pyridin-4-yl)-2,2-difluoro-2′-(5-fluoropyridin-2-yl)-4′H,6′H-spiro[cyclopropane-1,5′-pyrrolo[1,2-b]pyrazole]], the concentration for half-maximal inhibition (IC50) on human CSNK1D was found to be 15 nM; in test [1] it was 5 nM.

Consider `Fc1ccc(-c2nn3c(c2-c2ccncc2)COCC3)nc1` [Example 74, 2-(5-Fluoro-2-pyridyl)-3-(4-pyridyl)-6,7-dihydro-4H-pyrazolo[5,1-c][1,4]oxazine], for which the values for the IC50 (on human CSNK1D; in test [1]) were 2410 nM and 205 nM, respectively.

As to `C[C@@H]1n2nc(-c3ccc(F)cn3)c(-c3ccnc4[nH]nc(Cl)c34)c2COC1(C)C` (single isomer, unassigned) [Example 437, (*S)-3-(3-Chloro-1H-pyrazolo[3,4-b]pyridin-4-yl)-2-(5-fluoropyridin-2-yl)-6,6,7-trimethyl-6,7-dihydro-4H-pyrazolo[5,1-c][1,4]oxazine], the IC50 at human CSNK1D turned out to be 46 nM; in test [1], 5 nM.

Take `Cc1cc(-c2c(-c3ccc(F)cc3)nn3c2C2CCC3CC2)c2cn[nH]c2n1` [Example 66, 2-(4-Fluorophenyl)-3-(6-methyl-1H-pyrazolo[3,4-b]pyridin-4-yl)-4,5,6,7-tetrahydro-4,7-ethanopyrazolo[1,5-a]pyridine]: the 50% inhibitory concentration (IC50) on human CSNK1D stood at 4 nM; in test [1], 2 nM.

`Cc1nc2[nH]ncc2c(-c2c(-c3ccc(F)cn3)nn3c2CC(C)(C)C3)c1F` [Example 240, 5-Fluoro-4-[2-(5-fluoro-2-pyridyl)-5,5-dimethyl-4,6-dihydropyrrolo[1,2-b]pyrazol-3-yl]-6-methyl-1H-pyrazolo[3,4-b]pyridine]: the figures for the IC50 (at human CSNK1D; in test [1]) were 19 nM and 2 nM, respectively.
